Reference: patent US10124033B2, “Peptides and methods of use” (BAXALTA INCORPORATED, priority 2014, dated 2018)
Where two headings read alike, the source gives them in different places. Residues, ends and D or L forms follow the SMILES beside them.

Key:
[1] = target: T1, Protein S/APC cofactor activity (Homo sapiens, UniProt P07225); assay: CAT assay: Protein S/APC-dependent thrombin generation in FVIII-inhibited plasma; type: biochemical
T1 construct: host or cells: plasma
T1 sequence (P07225 41-676 limits assumed): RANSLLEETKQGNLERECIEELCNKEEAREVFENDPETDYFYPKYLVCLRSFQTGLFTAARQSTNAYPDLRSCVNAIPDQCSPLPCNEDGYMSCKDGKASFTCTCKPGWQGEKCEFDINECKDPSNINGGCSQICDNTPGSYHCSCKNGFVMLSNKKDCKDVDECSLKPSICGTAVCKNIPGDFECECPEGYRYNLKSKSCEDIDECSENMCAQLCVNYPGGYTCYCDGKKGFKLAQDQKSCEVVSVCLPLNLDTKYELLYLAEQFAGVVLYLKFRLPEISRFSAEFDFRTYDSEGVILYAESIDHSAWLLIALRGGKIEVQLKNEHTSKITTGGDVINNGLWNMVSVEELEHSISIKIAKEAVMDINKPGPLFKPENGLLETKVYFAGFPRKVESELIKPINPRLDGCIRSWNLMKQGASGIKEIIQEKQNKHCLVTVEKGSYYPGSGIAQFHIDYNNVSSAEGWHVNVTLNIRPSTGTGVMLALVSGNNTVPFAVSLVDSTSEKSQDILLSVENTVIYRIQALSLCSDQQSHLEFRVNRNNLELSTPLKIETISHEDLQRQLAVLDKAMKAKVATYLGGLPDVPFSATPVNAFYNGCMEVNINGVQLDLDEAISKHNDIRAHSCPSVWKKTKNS
Protocol: Peptides also were tested for improvement of Protein S/APC-dependent thrombin generation in hemophilic plasma using a CAT assay. Protein S enhances the anticoagulation of APC in plasma. The CAT assay quantifies the effect of Protein S on APC-mediated thrombin generation initiated via the extrinsic coagulation pathway (Nicolaes, Blood Coagul. Fibrinolysis, 8:28 (1997)). APC (35 nM) and Protein S (25 nM) was added to Protein 5-depleted plasma, and plasma samples were incubated with high titer heat inactivated anti-human FVIII plasma raised in goat (4490 BU/ml; Baxter BioScience, Vienna, Austria; 50 BU/ml final plasma concentration). Thrombin formation in plasma was followed by calibrated automated thrombography (CAT) in a Fluoroskan Ascent® reader (Thermo Labsystems, Helsinki, Finland) and quantified via the thrombin peak-height. Thrombin generation was determined at high tissue factor (TF) concentration in the absence and in the presence of APC at a concentration that reduces the peak height to ˜20%. The inhibitory effect of peptides described herein on the APC cofactor activity of Protein S (PS) in plasma was measured in FVIII-inhibited pooled normal plasma supplemented with APC. Complete (100%) Protein S/APC inhibition is the height of the thrombin peak without addition of APC. Lack of (0%) PS/APC inhibition correlates to the thrombin peak-height value with a certain amount of APC. Peptides were ranked by their normalized values in comparison to the mean of wild-type controls including SD at two defined peptide concentrations (EC50 and EC90).
Exemplary conditions for the CAT assay are as follows. Protein S-depleted plasma was supplemented with 35 nM APC and […]. Stock APC was diluted with 10 pM TF and 15 μM PL. Lyophilized peptides were dissolved in 100% DMSO to a 5 mM stock concentration and further diluted with HNABSA5-buffer+0.1% Tween80. […] In a 96 well Immulon 2HB (transparent), U-bottom (ThermoElectron) plate was mixed 80 μl plasma (+CTI+Z994-5), 10 μl peptide dilution, and 10 μl APC-TF-PL-MIX or Calibrator. Thrombin generation was initiated by dispensing 20 μL of FluCa reagent containing fluorogenic substrate and HEPES-buffered CaCl2 (100 mM) into each well. Fluorescence intensity was recorded at 37° C. using the Fluoroskan Ascent® reader (filters 390 nm excitation and 460 nm emission). The parameters of the resulting thrombin generation curves were calculated using the Thrombinoscope™ software (Thrombinoscope) and thrombin calibrator to correct for inner filter and substrate consumption effects (Hemker, Pathophysiol Haemost Thromb, 33: 415 (2003)).

[2] = target: T2, human full-length Protein S (Homo sapiens, UniProt P07225); assay: Biacore (surface plasmon resonance) on immobilized Protein S; type: binding; details: for koff: read-out: koff; for kon: read-out: kon
T2 construct: using human full-length Protein S and human GAS6
T2 sequence (P07225 41-676 limits assumed): T1 sequence (P07225 41-676 limits assumed)
Protocol: Protein S affinity also was determined via Biacore (Biacore 3000 or Biacore T200) using human full-length Protein S and human GAS6. Briefly, 1000 RU of Protein S or GAS6 were immobilized on a CMS chip. In order to probe the kinetics of Protein S binding peptides to Protein S, the peptides were injected at various concentrations in a HBS-buffer containing 3 mM CaCl2 and 1% DMSO to the flow cell and allowed to interact with the immobilized proteins on the sensor chip. The chip could be regenerated with 4 M MgCl2 in HBS-buffer. Sensorgrams were fitted to a Langmuir binding model for the determination of kon and koff and the calculation of KD. Peptides were tested on their specificity to Protein S with peptide binding studies on the anti-target GAS6.

Protein S = target: T3, Protein S (Homo sapiens, UniProt P07225); assay: competition (IC50) ELISA with biotinylated tracer peptide JBS0684; type: binding
T3 sequence (P07225 41-676 limits assumed): T1 sequence (P07225 41-676 limits assumed)
Protocol: The new peptide candidates were synthesized (purity >60%) and screened for affinity in a competitive binding assay (ELISA IC50) and activity in a thrombin generation assay (CAT). The competition (IC50) ELISA was performed using biotinylated tracer peptide JBS0684 to compete for Protein S-binding with candidate peptides. Peptides that compete with the tracer bind the same region of Protein S as the tracer (and each other). Ninety-six well PolySorp plates (Nunc) were coated with 3 μg/mL Protein S in coating buffer (15 mM Na2CO3, 35 mM NaHCO3, pH 9.6) over night. Plates were washed three times with wash buffer (HNaT: 175 mM NaCl, 25 mM HEPES, 5 mM CaCl2, 0.1% Tween 80, pH 7.35), and blocked with 100 μl 2% yeast extract in HNaT for at least 1 hour. Plates were then washed three times with HNaT. JBS0684 was applied at a concentration corresponding to the EC90 value determined in the binding ELISA. A competitor stock solution of peptide (10 mM) was diluted 1/33.3 in HNaT without HSA, and a serial ⅓ dilution was prepared with HNaT with 3% DMSO. The dilution was further diluted with the biotinylated tracer peptide in a ratio of 1:6 (20 μl competitor dilution and 100 μl tracer peptide). The mixture of competitor and tracer peptide was applied to the Protein S-coated microtiter plate and incubated for 1.5 hours. The plates were washed three times with HNaT. Peptide-Protein S binding was detected by applying HRP-conjugated streptavidin to the microtiter plate, incubating the mixture for one hour, washing the plate three times with HNaT, applying TMB (3,3′5,5′-Tetramethylbenzidin), and detecting the subsequent chromogenic conversion of TMB by HRP. IC50 measurements of peptides are provided herein (see, e.g., Table 3).

[3] = His to Leu substitution at position 3

CC(=O)N[C@H](C(=O)NCC(=O)N[C@@H](CC(C)C)C(=O)N[C@H](C(=O)N[C@@H](CO)C(=O)N[C@@H](C)C(=O)NCC(=O)N[C@@H](Cc1c[nH]c2ccccc12)C(=O)N[C@@H](Cc1ccc(O)cc1)C(=O)N[C@@H](CC(=O)O)C(=O)N[C@@H](Cc1ccc(O)cc1)C(=O)N[C@@H](CC(N)=O)C(=O)N[C@@H](Cc1ccccc1)C(=O)N[C@@H](CC(=O)O)C(=O)N[C@@H](Cc1c[nH]cn1)C(=O)N[C@@H](Cc1ccc(O)cc1)C(=O)N[C@@H](CCCNC(=N)N)C(=O)N[C@@H](CCC(=O)O)C(=O)N[C@@H](Cc1ccccc1)C(=O)N[C@H](C(N)=O)[C@@H](C)O)C(C)C)[C@@H](C)O [JBS2572] (Ac-TGLVSAGWYDYNFDHYREFT-NH2)
increase of activity in the CAT-assay compared to JBS2512 [1, 3]: 1.6 fold | PS/APC-dependent thrombin generation in hemophilic plasma ([1]; hemophilic plasma): improved | Kd ([2]; 25° C., read-out: KD for binding to Protein S): 6 nM | koff ([2]; 25° C.): 0.00148 s⁻¹ | kon ([2]; 25° C.): 248000 M⁻¹ s⁻¹ | Kd ([2]; 37° C., read-out: KD): 4 nM | koff ([2]; 37° C.): 0.00431 s⁻¹ | kon ([2]; 37° C.): 1.14e+06 M⁻¹ s⁻¹ | Kd ([2]; Biacore, affinity-matured and modified peptides, read-out: KD): 4 nM | increase of affinity compared to JBS2512 (Protein S; [3]): 1.6 fold | IC50 (Protein S; competition ELISA, tracer JBS0684, re-synthesized peptides): 2.5 ± 0.3 nM
